Data on one compound can be found in patent US20090318546A1, “Chromen-2-One Derivatives” (NOVARTIS AG, priority 2006, published 2009).

The term EC50 denotes the concentration that produces a half-maximal response.

Holding throughout (assay type): cell-based
In one assay the target is T1, S1P5 (Homo sapiens, UniProt Q9H228).
T1 construct: expressed in transfected cells; host or cells: CHO cells (G418 selection)
The assay is described as follows: FLIPR calcium flux assay, CHO cells expressing S1P5. To be noted: agonist activity; read-out: EC50 for S1P-5. Here is the method:
(§1) A.2 FLIPR Calcium Flux Assay
(§2) Compounds of the invention are tested for agonist activity on S1P1, S1P3, S1P5, and S1P6 with a FLIPR calcium flux assay. Briefly, CHO cells expressing an S1P receptor are maintained in F-12K medium (ATCC), containing 5% FBS, with 500 ug/ml of G418. Prior to the assay, the cells are plated in 384 black clear bottom plates at the density of 10,000 cells/well/25 µl in the medium of F-12K containing 1% FBS. The second day, the cells are washed three times (25 μl/each) with washing buffer. About 25 μl of dye are added to each well and incubated for 1 hour at 37° C. and 5% CO2. The cells are then washed four times with washing buffer (25 μl/each). The calcium flux is assayed after adding 25 μl of SEW2871 (published by Rosen et al., used as reference) solution to each well of cells. The same assay is performed with cells expressing each of the different S1P receptors. Titration in the FLIPR calcium flux assay is recorded over a 3-minute interval, and quantitated as maximal peak height percentage response relative to S1P-1 activation. The compounds of the invention are active in this assay at a concentration of from 10^−12 and […].
For orientation: Calcium flux is commonly read through the fluorescence of an indicator in the cells.

The target in the next assay is T2, S1P3 (Homo sapiens, UniProt Q99500).
T2 construct: expressed in transfected cells; host or cells: CHO cells (G418 selection)
T2 sequence (Q99500 whole entry): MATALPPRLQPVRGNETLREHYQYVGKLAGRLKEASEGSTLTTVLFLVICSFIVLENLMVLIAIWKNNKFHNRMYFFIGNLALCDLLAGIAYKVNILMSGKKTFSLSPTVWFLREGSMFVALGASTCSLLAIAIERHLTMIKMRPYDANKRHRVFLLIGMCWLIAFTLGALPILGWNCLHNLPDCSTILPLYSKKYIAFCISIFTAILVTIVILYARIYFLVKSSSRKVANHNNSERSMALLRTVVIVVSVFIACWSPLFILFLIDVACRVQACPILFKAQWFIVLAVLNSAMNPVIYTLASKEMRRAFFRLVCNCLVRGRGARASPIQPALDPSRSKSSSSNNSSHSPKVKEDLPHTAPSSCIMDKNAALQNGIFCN
The assay is described as follows: FLIPR calcium flux assay, CHO cells expressing S1P3. To be noted: agonist activity; read-out: EC50 for S1P-3. Here is the method: as §1, §2

A further assay addresses T3, S1P-4 (Homo sapiens, UniProt O95977).
T3 construct: expressed in transfected cells; host or cells: CHO cells (G418 selection)
T3 sequence (O95977 1-384): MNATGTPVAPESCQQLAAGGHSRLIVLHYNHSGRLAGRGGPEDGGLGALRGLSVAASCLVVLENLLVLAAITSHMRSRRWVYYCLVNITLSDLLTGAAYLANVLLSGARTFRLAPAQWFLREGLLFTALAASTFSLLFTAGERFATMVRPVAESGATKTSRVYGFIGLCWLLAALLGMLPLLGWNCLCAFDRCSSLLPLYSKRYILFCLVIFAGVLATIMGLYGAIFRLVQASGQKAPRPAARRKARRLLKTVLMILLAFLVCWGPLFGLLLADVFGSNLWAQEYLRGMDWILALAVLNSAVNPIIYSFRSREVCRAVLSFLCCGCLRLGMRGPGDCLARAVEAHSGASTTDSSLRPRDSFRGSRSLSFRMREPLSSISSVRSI
Briefly: FLIPR calcium flux assay, S1P-4. To be noted: agonist activity.

A further assay has as its target T4, S1P1 (Homo sapiens, UniProt P21453).
T4 construct: expressed in transfected cells; host or cells: CHO cells (G418 selection)
Briefly: FLIPR calcium flux assay, CHO cells expressing S1P1. To be noted: agonist activity; read-out: EC50 for S1P-1. The procedure:
as §1, §2

In a further assay the target is T5, S1P-2 (Homo sapiens, UniProt O95136).
T5 construct: expressed in transfected cells; host or cells: CHO cells (G418 selection)
T5 sequence (O95136 whole entry): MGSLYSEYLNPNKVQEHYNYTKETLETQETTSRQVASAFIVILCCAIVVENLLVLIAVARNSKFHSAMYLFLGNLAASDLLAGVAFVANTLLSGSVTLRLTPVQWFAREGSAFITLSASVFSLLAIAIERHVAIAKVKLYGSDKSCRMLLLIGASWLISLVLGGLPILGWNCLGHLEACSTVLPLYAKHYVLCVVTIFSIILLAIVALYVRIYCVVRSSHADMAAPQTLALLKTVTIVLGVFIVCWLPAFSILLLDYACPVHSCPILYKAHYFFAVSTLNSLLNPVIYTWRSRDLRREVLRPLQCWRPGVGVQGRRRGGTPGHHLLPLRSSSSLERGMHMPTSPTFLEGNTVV
The assay is described as follows: FLIPR calcium flux assay, S1P-2. To be noted: agonist activity. Here is the method:
as §1, §2

SMILES strings stand for the structures.

T4 sequence (P21453 whole entry): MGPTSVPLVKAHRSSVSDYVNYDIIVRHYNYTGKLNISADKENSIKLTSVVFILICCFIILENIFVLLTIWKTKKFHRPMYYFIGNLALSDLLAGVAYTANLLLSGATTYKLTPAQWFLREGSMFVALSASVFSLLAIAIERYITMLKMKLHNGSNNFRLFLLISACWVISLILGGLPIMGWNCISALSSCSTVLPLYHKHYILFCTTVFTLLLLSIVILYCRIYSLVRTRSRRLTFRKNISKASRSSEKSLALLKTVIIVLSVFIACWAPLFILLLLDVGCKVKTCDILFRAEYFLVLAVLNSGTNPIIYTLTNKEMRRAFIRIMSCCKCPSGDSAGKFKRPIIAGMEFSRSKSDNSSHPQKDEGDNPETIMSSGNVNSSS
T1 sequence (Q9H228 whole entry): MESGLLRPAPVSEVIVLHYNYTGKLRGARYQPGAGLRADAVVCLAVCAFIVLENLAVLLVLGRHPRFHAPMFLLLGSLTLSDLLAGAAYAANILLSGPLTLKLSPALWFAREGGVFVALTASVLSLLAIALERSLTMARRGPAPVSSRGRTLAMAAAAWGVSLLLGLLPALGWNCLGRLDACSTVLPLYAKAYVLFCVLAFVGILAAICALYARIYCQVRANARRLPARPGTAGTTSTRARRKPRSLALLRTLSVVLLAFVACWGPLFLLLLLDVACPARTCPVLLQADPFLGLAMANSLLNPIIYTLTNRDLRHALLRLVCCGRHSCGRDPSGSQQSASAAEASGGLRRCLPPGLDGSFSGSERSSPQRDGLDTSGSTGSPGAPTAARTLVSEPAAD

`CCCc1c(OC)ccc2cc(C(=O)Nc3ccc(CN)cc3)c(=O)oc12` [Example 1, 7-Methoxy-2-oxo-8-propyl-2H-chromene-3-carboxylic acid (4-aminomethyl-phenyl)-amide]: the EC50 was over 1000 nM on S1P5; over 1000 nM at S1P3; over 1000 nM on S1P-4; 8.7 nM on S1P1; over 1000 nM at S1P-2.
